7 compounds from paper PMC3805573, “Methylglyoxal Evokes Pain by Stimulating TRPA1” (PLoS ONE, 2013) can be followed below.

One data set deals with MDCK cells. The experiment in a line: [Ca2+]i-measurements in MDCK cells. The data set is classed as cell-based, Canine. The procedure:
MDCK cells were grown in DMEM (Invitrogen) supplemented with 5% fetal bovine serum, 100 U/ml penicillin and 100 µg/ml streptomycin. […] The experiments were performed in a physiological saline solution containing (in mM) 140 NaCl, 5 KCl, 10 glucose, 10 HEPES, 2 CaCl2, and 1 MgCl2, buffered to pH 7.4 with NaOH. Compounds were applied to cells by local continuous microperfusion of solution through a fine tube placed in close proximity of the cells studied. […] Analyses of emission intensity ratios at 340 nm/380 nm excitation (R, in individual cells) were performed using the ImageMaster suite of software. […] Cells grown in 96 well black walled plates (Costar, Tewksbury, MA) were loaded with Fura 2-AM in the presence of 1 mM probenecid at 37°C for 1–1.5 hours and assays were carried out at 25°C. Basal emission ratios (340 nm/380 nm) were measured and changes in ratio determined at various times after compound addition.

Another data set addresses T1, mTRPA1 K712Q (Mus musculus, UniProt Q8BLA8, K712Q).
T1 construct: expressed in transfected cells; host or cells: CHO cells
Nature of the data set: [Ca2+]i-responses of mTRPA1 K712Q in CHO cells. The format is cell-based. How it is done:
(§1) Untransfected CHO cells and CHO cells expressing mouse or human TRPA1 were grown in MEM Glutamax or AQ medium supplemented with penicillin (100 U/ml), streptomycin (100 µg/ml), and FCS (10%). Plasmids encoding mutated TRPA1 channels were kindly provided by Dr. Ardem Patapoutian. All media, serum and antibiotics were from Invitrogen (Paisley, UK) or Sigma (Poole, UK).
(§2) Cells were loaded with 2 µM Fura-2 AM (Molecular Probes, Paisley, UK) in the presence of 1 mM probenecid for ∼1 hr. The experiments were performed in a physiological saline solution containing (in mM) 140 NaCl, 5 KCl, 10 glucose, 10 HEPES, 2 CaCl2, and 1 MgCl2, buffered to pH 7.4 with NaOH. Compounds were applied to cells by local continuous microperfusion of solution through a fine tube placed in close proximity of the cells studied. Images of a group of cells were captured every 2 sec using 340 and 380 nm excitation wavelengths with emission measured at 520 nm with a microscope based imaging system (PTI, New Jersey). Analyses of emission intensity ratios at 340 nm/380 nm excitation (R, in individual cells) were performed using the ImageMaster suite of software.

For the next data set, the system named is beta cells. Nature of the data set: [Ca2+]i-responses in pancreatic beta cells. The format is cell-based, mice. The settings on record: AITC, cells from wildtype or Trpa1-/- mice (data not shown). How it is done: Mouse islets of Langerhans were isolated from the exocrine pancreas by collagenase digestion (1 mg/ml, type XI, Sigma, Poole, UK). Islets were dissociated by 15 min incubation in trypsin (0.5%, Sigma, Poole, UK) followed by trituration through a flame polished glass Pasteur pipette and the islet cells were seeded on glass cover slips.
as §2

The test system of a further data set is TRPA1. The experiment in a line: Outward TRPA1 currents in absence of Ca2+, effect of DTT. The format is cell-based. The settings on record: +60 mV, Ca2+-free. The procedure:
DRG neurons and TRPA1 CHO cells were studied under voltage-clamp conditions using an Axopatch 200B amplifier and pClamp 10.0 software (Molecular Devices, Sunnyvale, CA). Except where stated otherwise, whole cell recordings were performed at a holding potential of –60 mV using an extracellular solution with the composition described above for [Ca^2+]i measurements. Borosilicate glass pipettes (2–5 MΩ, 75–80% series resistance compensation) were filled with (in mM) 140 KCl, 1 CaCl2, 2 MgATP, 10 EGTA, and 10 HEPES buffered to pH 7.4 (KOH). Excised inside-out patches were recorded using a Ca^2+-free solution containing (in mM) 140 NaCl, 5 KCl, 1 MgCl2, 10 HEPES and 1 EGTA, pH 7.4 (NaOH) in the pipettes and perfused with 140 KCl, 2 MgATP, 1 EGTA, and 10 HEPES (pH 7.4). DRG neurons were studied using an intracellular solution containing (in mM) 140 CsCl, 1 CaCl2, 2 MgATP, 10 EGTA and 10 HEPES, pH 7.4 (CsOH). Drugs were applied by local microperfusion with a rapid solution changer (RSC-200, Biologic, Claix, France).
It is possible that MG stimulates TRPA1 through formation of reversible hemithioacetals with cysteine residues other than those examined here, [40]. To investigate this possibility we examined the effect of the reducing agent dithiothreitol (DTT, 2 mM) on outward TRPA1 currents recorded in the absence of Ca^2+ (5 mM BAPTA intracellularly, 1 mM EGTA extracellularly) to avoid Ca^2+-mediated inactivation or desensitization. We used DTT to determine whether disulfide bridge formation or reversible noncovalent interactions contribute to the agonist activity of MG. DTT is expected to rapidly reduce cystine bridges to free thiols, but also to form hemithioacetals with MG, thereby accelerating current decay. Covalent modification of arginine and lysine residues by MG and modification of cysteine residues by AITC are on the other hand resistant to DTT [31]. […] This is consistent with the expected oxidative formation of cystine bridges and their reduction by DTT [4]. The contrast between the stable currents produced by H2O2 and the spontaneously reversible currents evoked by MG highlights the reversible nature of the interaction between MG and TRPA1. […] We also observed that repeated applications of MG and H2O2 evoked reproducible current responses of similar amplitudes, whereas an application of AITC prevented subsequent channel activation by AITC challenges (Fig. 4C-E). We conclude that MG acts through a reversible interaction with TRPA1 and that H2O2 relies on DTT sensitive oxidative modification of TRPA1 protein for its activity. […] In contrast, the covalent modification produced by AITC appears irreversible and renders TRPA1 refractory to subsequent activation.

Data set [1] concerns human TRPA1 C621S, C641S or C665S. The experiment in a line: [Ca2+]i-responses of human TRPA1 point mutants C621S, C641S, C665S. The data set is classed as cell-based. The settings on record: human TRPA1 single point mutants vs wildtype. The procedure:
as §1
as §2, with “Analyses of emission intensity ratios at 340 nm/380 nm excitation (R, in individual cells) were performed using the ImageMaster suite of software.” left out
Changes in intracellular calcium ([Ca^2+]i) in response to agonists were determined in TRPA1 expressing CHO cells and MDCK cells using a Flexstation 3 (Molecular Devices). […] Basal emission ratios (340 nm/380 nm) were measured and changes in ratio determined at various times after compound addition.

Data set [2] concerns Trpa1+/+ and Trpa1-/- mice. Nature of the data set: Intraepidermal nerve fiber density in plantar skin (PGP9.5). The settings on record: 2 weeks treatment, 50 mg/kg every other day, either genotype. The format is in vivo. How it is done:
Formalin fixed plantar skin was embedded in paraffin wax and cut in 8 µm sections and stained with rabbit polyclonal anti-PGP9.5 (1 in 5000, Ultraclone Ltd, UK) after citric acid heat induced epitope retrieval. Staining was visualized using anti-rabbit IgG labeled with Alexa-594. The number of PGP9.5 positive fibers crossing the basal membrane into the epidermis was determined in n = 6 mice for each group on a Zeiss Axioplan 2 microscope. The observer was blinded to the treatment.

For a further data set, the system named is mice. The experiment in a line: Acute GLO-1 inhibition, paw pressure and von Frey tests. The data set is classed as in vivo. The settings on record: 1 h after administration, 50 mg/kg i.p. The procedure: (§3) Mechanical thresholds were measured using an Analgesymeter (Ugo-Basile, Milan). Mice were kept in their holding cages to acclimatize (10–15 min) to the experimental room. The experimenter then lightly restrained the mouse and applied an increasing pressure stimulus to the dorsal surface of the hind paw using a blunt conical probe. The nociceptive threshold was defined as the force in grams at which the mouse withdrew its paw. In order to avoid tissue injury a 150 g force cut-off value was used.
Tactile allodynia was assessed by measuring withdrawal thresholds to calibrated von Frey filaments (0.008–2 g). Animals were placed in a Perspex chamber with a metal grid floor giving access to the underside of their paws and allowed to acclimatize prior to the start of the experiment. […] Using a modified ‘up-down’ method the lowest force filament producing a positive response was recorded as the threshold.
(§4) Methylglyoxal (250 nmoles in 25 µl saline) was injected subcutaneously into the plantar surface of one of the hind paws using a 50 µl luer-syringe (Hamilton Co.) fitted with a 26-gauge x 3/8 inch intradermal needle. Immediately after injection, mice were placed inside a Perspex chamber and the duration of the pain-related behaviors (licking and biting or flinching and shaking of the injected paw) recorded using a digital stop-watch. […]

Data set [3] deals with Trpa1+/+ and Trpa1-/- mice. Nature of the data set: Two week GLO-1 inhibition, nociceptive responses to cold, heat and mechanical stimulation. The data set is classed as in vivo. How it is done:
Data shown are from male and female homozygote Trpa1^− ^/− and Trpa1 ^+/+. The Trpa1-null mice and wild-type littermates were bred from heterozygotic mice provided by Drs. Kelvin Kwan and David Corey (Harvard Medical School, Boston, MA).
as §3
Tactile allodynia was assessed by measuring withdrawal thresholds to calibrated von Frey filaments (0.008–2 g). Animals were placed in a Perspex chamber with a metal grid floor giving access to the underside of their paws and allowed to acclimatize prior to the start of the experiment. Von Frey filaments were applied perpendicular to the mid plantar surface of the hind paw with sufficient force to cause slight bending against the paw and held for a few seconds. This was repeated 5 times at intervals of 1–2 s. A positive response was noted if the paw was sharply withdrawn or there was flinching upon removal of the hair. […] Using a modified ‘up-down’ method the lowest force filament producing a positive response was recorded as the threshold.
Heat and cold sensitivities were assessed by measuring the time for paw withdrawal from a 50°C hotplate or 10°C coldplate (Ugo Basile, Milan) of lightly restrained mice.
as §4

Data set [4] has as its system Trpa1+/+ and Trpa1-/- mice. The experiment in a line: Glucose tolerance test, blood glucose. The format is in vivo. The procedure: The glucose tolerance test was performed in mice (not fasted) treated i.p. with 2 g/kg glucose or vehicle (0.2 ml, 0.9% saline). HC030031 (100 mg/kg) or vehicle (DMSO 10%, Tween 80 5%, 0.9% saline 85%) was administered i.p. 30 min before glucose or vehicle. Glucose concentrations were determined using a Contour blood glucose meter (Bayer Diabetes Care) in blood samples taken from the tail-tip.

T1 sequence (Q8BLA8 whole entry K712Q): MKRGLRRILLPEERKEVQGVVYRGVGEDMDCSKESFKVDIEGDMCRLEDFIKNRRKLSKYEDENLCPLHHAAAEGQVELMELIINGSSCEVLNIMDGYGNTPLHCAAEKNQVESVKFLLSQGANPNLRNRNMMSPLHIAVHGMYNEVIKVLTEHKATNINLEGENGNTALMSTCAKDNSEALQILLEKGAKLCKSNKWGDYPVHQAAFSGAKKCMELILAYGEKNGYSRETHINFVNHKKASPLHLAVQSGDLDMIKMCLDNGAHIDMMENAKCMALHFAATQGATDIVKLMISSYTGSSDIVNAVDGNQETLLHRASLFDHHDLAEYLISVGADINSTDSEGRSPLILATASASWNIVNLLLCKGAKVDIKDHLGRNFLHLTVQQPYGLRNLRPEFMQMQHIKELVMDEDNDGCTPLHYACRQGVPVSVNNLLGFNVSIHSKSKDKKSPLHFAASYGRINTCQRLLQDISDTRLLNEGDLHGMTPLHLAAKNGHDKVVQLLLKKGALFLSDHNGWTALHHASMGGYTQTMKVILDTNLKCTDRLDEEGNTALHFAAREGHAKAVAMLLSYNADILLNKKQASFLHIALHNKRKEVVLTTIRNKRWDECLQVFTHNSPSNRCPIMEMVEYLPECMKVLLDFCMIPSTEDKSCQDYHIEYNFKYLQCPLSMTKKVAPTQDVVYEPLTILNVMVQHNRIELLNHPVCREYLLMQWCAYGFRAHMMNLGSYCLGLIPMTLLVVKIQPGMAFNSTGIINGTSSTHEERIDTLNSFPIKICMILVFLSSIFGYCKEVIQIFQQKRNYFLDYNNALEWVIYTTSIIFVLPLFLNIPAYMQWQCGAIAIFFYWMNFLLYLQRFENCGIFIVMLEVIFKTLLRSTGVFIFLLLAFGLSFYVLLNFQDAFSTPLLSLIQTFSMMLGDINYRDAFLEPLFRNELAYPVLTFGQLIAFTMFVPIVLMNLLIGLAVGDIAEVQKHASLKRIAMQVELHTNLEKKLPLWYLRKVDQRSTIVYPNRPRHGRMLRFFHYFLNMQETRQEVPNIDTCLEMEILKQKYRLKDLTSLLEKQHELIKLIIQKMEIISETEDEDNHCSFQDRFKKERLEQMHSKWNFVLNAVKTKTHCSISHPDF

Turning to `O=C/C=C/c1ccccc1` [cinnamaldehyde], the “[Ca2+]i-influx response” value in the data set on MDCK cells (1 mM) is “evoked [Ca^2+]i-influx responses”.

`CC1=C[C@H]2c3c(O)cc(C)cc3OC(C)(C)[C@@H]2CC1` [Δ^9-tetrahydrocannabiorcol]: the “amplitude of [Ca2+]i-responses in mTRPA1 K712Q compared to WT mTRPA1” value at mTRPA1 K712Q (20 µM (Fig. 4D)) was “significantly reduced”.

As for `CC(=Cc1ccc(Cl)cc1)C(C)=NO` [AP18, 4-(4-chlorophenyl)-3-methylbut-3-en-2-one oxime], the “effect on concentration-response curves for AITC and MG” value in the data set with MDCK cells (AP18 10 µM) was “produced similar rightward shifts”.

In the case of `C=CCN=C=S` [AITC], the “[Ca2+]i-influx response” value in the data set on MDCK cells (100 µM) is “evoked [Ca^2+]i-influx responses”. Also, in the data set on MDCK cells (read-out: EC50, [Ca2+]i-responses), the EC50 (as a rule, the concentration at which the effect is half-maximal) was determined as 9.1 ± 2 µM. For the same compound, in the data set on beta cells, the “[Ca2+]i-responses in beta cells” value is “failed to elicit [Ca^2+]i-responses”. In the data set on TRPA1 (AITC 50 µM), the “effect of DTT (2 mM) on agonist-evoked TRPA1 current” value was “resistant to treatment with DTT” and the “outward TRPA1 current after removal of agonist” value is “declined with time after removal of AITC”. For the same compound, the “effect of substitutions C621S, C641S, C665S on sensitivity to AITC” value in data set [1] is “very substantially reduced”. The “amplitude of [Ca2+]i-responses in mTRPA1 K712Q compared to WT mTRPA1” value on mTRPA1 K712Q (AITC 50 µM) is reported as “significantly reduced”.

For `NC(CCC(=O)NC(CSCc1ccc(Br)cc1)C(=O)NCC(=O)OC1CCCC1)C(=O)OC1CCCC1` (stereo not drawn) [GLO-1 inhibitor, Sr-p-Bromobenzylglutathione cyclopentyl diester], the “IENF density compared to vehicle treated mice” value in data set [2] is recorded as “failed to produce a significant reduction”. For the same compound, in the data set with mice, the “sensitivity in the paw pressure test” value is reported as “unaffected” and the “sensitivity in the von Frey filaments test” value is “unaffected”. Moreover, the “sensitivity to all four test modalities” value in data set [3] (Trpa1+/+ mice, after day 4, 7 administrations over 2 weeks, 50 mg/kg i.p.) is “progressively increased”. Also, in data set [3] (first 4 days of the study, 50 mg/kg i.p. every 2 days), the “sensitivity to cold, heat, paw-pressure and von Frey stimulation” value is reported as “no increased sensitivity in any of the tests”. Further, the persistence of hypersensitivities result in data set [3] (two weeks after cessation of drug administration) is “no sign of reversal”.

With `OO` [hydrogen peroxide], the “[Ca2+]i-influx response” value in the data set with MDCK cells (20 mM) is “evoked [Ca^2+]i-influx responses”. Besides, in the data set on TRPA1 (H2O2 5 mM), the “effect of DTT (2 mM) on agonist-evoked TRPA1 current” value was “rapidly reduced the current amplitude” and the “outward TRPA1 current after removal of agonist” value is given as “remained at a stable amplitude after removal of H2O2”.

In the case of `CC(C)c1ccc(NC(=O)Cn2cnc3c2c(=O)n(C)c(=O)n3C)cc1` [HC030031], in data set [4] (100 mg/kg i.p.), the “blood glucose in mice not challenged with glucose” value is given as “increased the blood glucose”. Besides, in data set [4] (100 mg/kg i.p. 30 min before glucose 2 g/kg i.p., both Trpa1+/+ and Trpa1-/- mice), the “blood glucose following a glucose challenge” value is “dramatically enhanced the increase in blood glucose”.
